In one experiment the test system is ACHN cells. As to the kind of experiment: Cell Titer Glo viability assay, ACHN cells. Particulars: 144 h, absolute EC50. In kind it is cell-based. The method, then:
Each of an ACHN renal cell carcinoma cell line (ATCC) and a DAOY medulloblastoma cell line, and an A427 lung cancer line were cultured in Minimum Essential Medium Eagle supplemented with 10% fetal calf serum (Sigma), 1% Penicillin-Streptomycin and 10 mM HEPES buffer (HyClone). Cell cultures were kept in a humidified incubator at 37 °C and 5% CO2. Cells were routinely tested for Mycoplasma contamination.
ACHN cells, DAOY cells, or A427 cells were seeded at a density of 400, 250, or 500 cells per well respectively, in tissue culture treated 384 well plates (Corning Costar). After overnight incubation, cells were treated with drugs at concentrations ranging from 17 to 10 000 nM. Viability compared to untreated control was assessed at 144 h using Cell Titer Glo assay 2.0 (Promega). […] “NT” means the compounds was not tested in the indicated cells.

Experiment [1] addresses T1, recombinant human Wee1A kinase (Homo sapiens, UniProt P30291).
T1 construct: full length Wee1 kinase was expressed by baculovirus in insect cells; purchased Invitrogen PV3817; host or cells: insect cells (baculovirus)
Kind of experiment: Wee1A kinase binding assay (LanthaScreen Eu time-resolved FRET). An outline of the steps:
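Full-length, baculovirus-expressed GST-tagged Wee1A (5 nM) was mixed with 2 nM Eu-anti-GST antibody, 30 nM kinase tracer 178 and compound (1% DMSO). Buffer was 50 mM HEPES pH 7.5, 10 mM MgCl2, 1 mM EGTA, 0.01% Brij-35, incubated 60 min at room temperature. TR-FRET 665/615 nm emission ratios from duplicates were curve-fitted.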

The target in experiment [2] is T2, Wee1A kinase (CDK1 Tyr15 phosphorylation in ACHN renal cell carcinoma cells) (Homo sapiens, UniProt P30291).
T2 construct: pCDK1 Tyr15 immunofluorescence read-out
T2 sequence (P30291 whole entry): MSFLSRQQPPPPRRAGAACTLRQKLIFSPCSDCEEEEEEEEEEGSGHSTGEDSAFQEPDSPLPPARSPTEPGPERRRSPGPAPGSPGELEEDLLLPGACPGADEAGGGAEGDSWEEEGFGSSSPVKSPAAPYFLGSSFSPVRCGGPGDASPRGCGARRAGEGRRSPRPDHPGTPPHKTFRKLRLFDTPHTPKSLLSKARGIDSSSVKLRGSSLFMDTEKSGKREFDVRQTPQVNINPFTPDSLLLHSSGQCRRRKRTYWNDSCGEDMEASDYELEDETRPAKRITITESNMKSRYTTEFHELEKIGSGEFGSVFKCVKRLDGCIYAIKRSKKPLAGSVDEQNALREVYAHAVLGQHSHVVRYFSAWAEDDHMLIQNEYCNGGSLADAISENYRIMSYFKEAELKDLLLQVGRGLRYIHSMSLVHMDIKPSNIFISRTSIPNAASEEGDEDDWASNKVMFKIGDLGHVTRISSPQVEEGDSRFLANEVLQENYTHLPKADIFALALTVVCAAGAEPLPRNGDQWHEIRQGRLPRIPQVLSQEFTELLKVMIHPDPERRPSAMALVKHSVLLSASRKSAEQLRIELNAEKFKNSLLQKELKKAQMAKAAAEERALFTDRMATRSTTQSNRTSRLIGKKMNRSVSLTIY
Kind of experiment: High-content imaging of pCdk1 Y15, Wee1A kinase target engagement in ACHN cells. In kind it is cell-based. The method in brief:
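ACHN cells exposed to compound for 4 h over 7–5,000 nM or 0.3–200 nM, then fixed and immunostained for pCDK1 Y15 with DAPI nuclear counterstain. The percentage of pCdk1 Y15 nucleus-positive cells relative to DMSO control was imaged per well; EC50 from dose-response curves.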

Experiment [3] has as its target T3, Myt1 kinase (recombinant PMYT-1) (Homo sapiens, UniProt Q99640).
T3 construct: full length PMYT-1 was expressed by baculovirus in insect cells; purchased Invitrogen A30984; host or cells: insect cells (baculovirus)
T3 sequence (Q99640 1-499): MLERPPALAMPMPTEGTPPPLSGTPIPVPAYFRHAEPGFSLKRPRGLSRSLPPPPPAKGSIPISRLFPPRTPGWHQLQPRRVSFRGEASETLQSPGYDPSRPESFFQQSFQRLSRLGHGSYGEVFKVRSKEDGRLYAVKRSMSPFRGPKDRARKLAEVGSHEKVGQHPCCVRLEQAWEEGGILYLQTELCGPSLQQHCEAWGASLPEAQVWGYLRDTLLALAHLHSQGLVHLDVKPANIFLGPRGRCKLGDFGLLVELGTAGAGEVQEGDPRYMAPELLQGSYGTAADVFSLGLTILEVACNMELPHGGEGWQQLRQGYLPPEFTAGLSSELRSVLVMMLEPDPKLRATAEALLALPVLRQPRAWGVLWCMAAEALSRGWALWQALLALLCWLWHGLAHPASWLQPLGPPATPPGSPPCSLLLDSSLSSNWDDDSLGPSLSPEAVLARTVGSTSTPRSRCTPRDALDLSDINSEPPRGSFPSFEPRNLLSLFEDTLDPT
Kind of experiment: Myt1 kinase binding assay (LanthaScreen Eu Kinase Binding Assay). An outline of the steps:
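The binding affinity of compounds for Myt1 kinase was measured with a LanthaScreen Europium (Eu) Kinase Binding Assay, a time-resolved FRET format in which test compounds compete against a labeled kinase tracer, and the results were expressed as IC50 values describing compound binding to Myt1.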

Setting [4] is: 30 nM tracer 178, 5 nM Wee1A kinase, 2 nM Eu-labeled antibody, 60 minutes at room temperature, read-out: Wee1A kinase Binding IC50.
Setting [5] is: 4 h treatment, nuclear positivity for pCdk1 Y15 vs DMSO control, read-out: CDK1 Tyr15 Phosphorylation EC50.
[6] abbreviates: 3 nM tracer 178, 2.5 nM PMYT-1, 1 nM Eu-labeled antibody, read-out: Myt1 kinase Binding IC50.
[7] abbreviates: read-out: CDK1 Tyr15 Phosphorylation EC50, 4 h treatment, nuclear positivity for pCdk1 Y15 vs DMSO control.
Setting [8] is: Myt1 kinase Binding IC50, 3 nM tracer 178, 2.5 nM PMYT-1, 1 nM Eu-labeled antibody.

Structures are written as SMILES. Like-named read-outs stand apart in the source and are kept apart here.

T1 sequence (P30291 whole entry): as the sequence (P30291 whole entry) above

Regarding `C=CCn1c(=O)c2cnc(Nc3ccc4c(cnn4C)c3)nc2n1-c1cccc(N[C@@H]2CCNC2)n1` [Compound 102, 1-{6-[(R)-3-pyrrolidinylamino]-2-pyridyl}-2-allyl-6-(1-methyl-1H-indazol-5-ylamino)-1,2-dihydro-3H-1,2,5,7-tetraazainden-3-one], the EC50 (with ACHN cells (Homo sapiens); in experiment [2] (setting [5])) was more than 1 µM each time. For the same molecule, the IC50 was less than 0.01 µM in experiment [1] (setting [4]) and 0.02 to 0.1 µM in experiment [3] (setting [6]).

As for `C=CCn1c(=O)c2cnc(Nc3ccc4c(cnn4C)c3)nc2n1-c1cccc(O[C@@H]2CCCNC2)n1` [Compound 103, 6-[(1-Methyl-1H-indazol-5-yl)amino]-1-{6-[(3R)-piperidin-3-yloxy]pyridin-2-yl}-2-(prop-2-en-1-yl)-1H,2H,3H-pyrazolo[3,4-d]pyrimidin-3-one; bis(trifluoroacetic acid)], the EC50 was 0.1 to 0.5 µM with ACHN cells (Homo sapiens) and less than 0.1 µM in experiment [2] (setting [5]). For the same molecule, the figures for the IC50 in experiment [1] (setting [4]) and in experiment [3] (setting [6]) were less than 0.01 µM and 0.1 to 0.5 µM, respectively.

Regarding `C=CCn1c(=O)c2cnc(Nc3ccc4c(cnn4C)c3)nc2n1-c1cccc(N[C@H]2CCN(C)C2)n1` [Compound 108, 1-{6-[(S)-1-methyl-3-pyrrolidinylamino]-2-pyridyl}-2-allyl-6-(1-methyl-1H-indazol-5-ylamino)-1,2-dihydro-3H-1,2,5,7-tetraazainden-3-one], the EC50 in the experiment on ACHN cells (Homo sapiens) was 0.1 to 0.5 µM; in experiment [2] (setting [5]), less than 0.1 µM. Besides, the values for the IC50 in experiment [1] (setting [4]) and in experiment [3] (setting [6]) were less than 0.01 µM and 0.02 to 0.1 µM, respectively.

`C=CCn1c(=O)c2cnc(Nc3ccnc(C)c3)nc2n1-c1cccc(OC2CCNCC2)n1` [Compound 113, 2-allyl-6-(2-methyl-4-pyridylamino)-1-[6-(4-piperidyloxy)-2-pyridyl]-1,2-dihydro-3H-1,2,5,7-tetraazainden-3-one]: the EC50 in the experiment with ACHN cells (Homo sapiens) is more than 1 µM; in experiment [2] (setting [5]), 0.5 to 1 µM. For the same molecule, the values for the IC50 in experiment [1] (setting [4]) and in experiment [3] (setting [6]) were less than 0.01 µM and 0.02 to 0.1 µM, respectively.

In the case of `C=CCn1c(=O)c2cnc(Nc3ccc4c(cnn4C)c3)nc2n1-c1cccc(N(C)C2CCNCC2)n1` [Compound 116, 1-[6-(N-methyl-N-4-piperidylamino)-2-pyridyl]-2-allyl-6-(1-methyl-1H-indazol-5-ylamino)-1,2-dihydro-3H-1,2,5,7-tetraazainden-3-one], the EC50 with ACHN cells (Homo sapiens) is 0.1 to 0.5 µM; in experiment [2] (setting [7]), less than 0.1 µM. Besides, the IC50 in experiment [1] is less than 0.01 µM; in experiment [3] (setting [8]), more than 0.5 µM.

As to `C=CCn1c(=O)c2cnc(Nc3ccc4c(cnn4C)c3)nc2n1-c1cccc(N(C)C2CCN(C)CC2)n1` [Compound 118, 1-{6-[N-methyl(1-methyl-4-piperidyl)amino]-2-pyridyl}-2-allyl-6-(1-methyl-1H-indazol-5-ylamino)-1,2-dihydro-3H-1,2,5,7-tetraazainden-3-one], the EC50 in the experiment on ACHN cells (Homo sapiens) is not above 0.1 µM; in experiment [2] (setting [7]) it was less than 0.1 µM. Also, the figures for the IC50 in experiment [1] and in experiment [3] (setting [8]) were less than 0.01 µM and more than 0.5 µM, respectively.

Regarding `C=CCn1c(=O)c2cnc(Nc3ccc4c(cnn4C)c3)nc2n1-c1cccc(N[C@@H]2CCN(CC)C2)n1` [Compound 119, 1-(6-{[(3R)-1-ethylpyrrolidin-3-yl]amino}pyridin-2-yl)-6-[(1-methyl-1H-indazol-5-yl)amino]-2-(prop-2-en-1-yl)-1H,2H,3H-pyrazolo[3,4-d]pyrimidin-3-one], the figures for the EC50 (with ACHN cells (Homo sapiens); in experiment [2] (setting [5])) were not above 0.1 µM and less than 0.1 µM, respectively. Further, the figures for the IC50 in experiment [1] (setting [4]) and in experiment [3] (setting [6]) were less than 0.01 µM and 0.1 to 0.5 µM, respectively.

Turning to `C=CCn1c(=O)c2cnc(Nc3ccc4ccoc4c3)nc2n1-c1cccc(OC2CCN(C)CC2)n1` [Compound 195], the figures for the concentration giving a half-maximal response (EC50) (in the experiment with ACHN cells; in experiment [2] (setting [5])) were not above 0.1 µM and less than 0.1 µM, respectively. In experiment [3] (setting [6]), the IC50 fell in the range of 0.1 to 0.5 µM.

For the molecule `CCn1c(=O)c2cnc(Nc3ccc4c(cnn4C)c3)nc2n1-c1cccc(N(C)C2CCN(C)CC2)n1` [Compound 287, 1-{6-[N-methyl(1-methyl-4-piperidyl)amino]-2-pyridyl}-2-ethyl-6-(1-methyl-1H-indazol-5-ylamino)-1,2-dihydro-3H-1,2,5,7-tetraazainden-3-one], the EC50 was 0.1 to 0.5 µM in the experiment on ACHN cells (Homo sapiens) and less than 0.1 µM in experiment [2] (setting [7]). The IC50 in experiment [1] was less than 0.01 µM.

For the molecule `C=CCn1c(=O)c2cnc(Nc3ccc4c(cnn4C)c3)nc2n1-c1cccc(O[C@@H]2CCCN(C)C2)n1` [Compound 331, 6-[(1-methyl-1H-indazol-5-yl)amino]-1-(6-{[(3R)-1-methylpiperidin-3-yl]oxy}pyridin-2-yl)-2-(prop-2-en-1-yl)-1H,2H,3H-pyrazolo[3,4-d]pyrimidin-3-one], the EC50 was 0.1 to 0.5 µM with ACHN cells (Homo sapiens) and less than 0.1 µM in experiment [2] (setting [5]). Moreover, in experiment [1] (setting [4]), the IC50 was less than 0.01 µM.

As for `C=CCn1c(=O)c2cnc(Nc3ccc(OCCF)cc3)nc2n1-c1ccnc(OC2CCNCC2)n1` [Compound 391, 2-allyl-6-((4-(2-fluoroethoxy)phenyl)amino)-1-(2-(piperidin-4-yloxy)pyrimidin-4-yl)-1,2-dihydro-3H-pyrazolo[3,4-d]pyrimidin-3-one], the IC50 was less than 0.01 µM in experiment [1] (setting [4]) and 0.02 to 0.1 µM in experiment [3] (setting [6]). In experiment [2] (setting [5]), the EC50 lay within 0.1 to 0.5 µM.

As for `C=CCn1c(=O)c2cnc(Nc3ccc4cn(C)nc4c3)nc2n1-c1cccc(OC2CCNCC2)n1` [Compound 393, 2-allyl-6-((2-methyl-2H-indazol-6-yl)amino)-1-(6-(piperidin-4-yloxy)pyridin-2-yl)-1,2-dihydro-3H-pyrazolo[3,4-d]pyrimidin-3-one], the IC50 in experiment [1] (setting [4]) is less than 0.01 µM; in experiment [3] (setting [6]), 0.02 to 0.1 µM. Besides, the EC50 in experiment [2] (setting [5]) is 0.1 to 0.5 µM.

Consider `C=CCn1c(=O)c2cnc(Nc3ccc4c(cnn4C)c3)nc2n1-c1cccc(OC2CCNC(C)C2)n1` [Compound 404, rel-2-allyl-6-((1-methyl-1H-indazol-5-yl)amino)-1-(6-(((2R,4R)-2-methylpiperidin-4-yl)oxy)pyridin-2-yl)-1,2-dihydro-3H-pyrazolo[3,4-d]pyrimidin-3-one], for which the IC50 in experiment [1] (setting [4]) is less than 0.01 µM; in experiment [3] (setting [6]), 0.02 to 0.1 µM. Also, the EC50 in experiment [2] (setting [5]) is less than 0.1 µM.

With `C=CCn1c(=O)c2cnc(Nc3cnc4c(cnn4C(C)C)c3)nc2n1-c1cccc(OC2CCNCC2)n1` [Compound 407, 2-allyl-6-((1-isopropyl-1H-pyrazolo[3,4-b]pyridin-5-yl)amino)-1-(6-(piperidin-4-yloxy)pyridin-2-yl)-1,2-dihydro-3H-pyrazolo[3,4-d]pyrimidin-3-one], the IC50 in experiment [1] (setting [4]) was less than 0.01 µM; in experiment [3] (setting [6]), less than 0.02 µM. Moreover, the EC50 in experiment [2] (setting [5]) is less than 0.1 µM.

With `C=CCn1c(=O)c2cnc(Nc3ccc4c(c3)nnn4C(C)C)nc2n1-c1cccc(OC2CCNCC2)n1` [Compound 408, 2-allyl-6-((1-isopropyl-1H-benzo[d][1,2,3]triazol-5-yl)amino)-1-(6-(piperidin-4-yloxy)pyridin-2-yl)-1,2-dihydro-3H-pyrazolo[3,4-d]pyrimidin-3-one], the results for the IC50 in experiment [1] (setting [4]) and in experiment [3] (setting [6]) were less than 0.01 µM and less than 0.02 µM, respectively. Also, in experiment [2] (setting [5]), the EC50 is less than 0.1 µM.

Regarding `C=CCn1c(=O)c2cnc(Nc3ccc4c(c3)nnn4C(C)C)nc2n1-c1cccc(OC2CCN(C)CC2)n1` [Compound 409, 2-allyl-6-((1-isopropyl-1H-benzo[d][1,2,3]triazol-5-yl)amino)-1-(6-((1-methylpiperidin-4-yl)oxy)pyridin-2-yl)-1,2-dihydro-3H-pyrazolo[3,4-d]pyrimidin-3-one], the IC50 in experiment [1] (setting [4]) was less than 0.01 µM; in experiment [3] (setting [6]), less than 0.02 µM. The EC50 in experiment [2] (setting [5]) is less than 0.1 µM.

These data come from patent publication US20260364080A1, “PYRAZOLO-PYRIMIDINONE COMPOUNDS FOR USE IN METHODS OF INHIBITING WEE1 A KINASE” (Acrivon Therapeutics, Inc., priority 2023, published 2026).
